The NIST ThermoML archive (doi:10.1021/acs.jced.8b00554)

Assay: xn = mol fraction of the nth substance listed
Conditions: Liquid, Vibrating tube method

CCCCCCCCCC [decane] + CCCO
mass density [kg/m3]
Conditions | 343.15 K | 353.15 K
100 kPa, x2 = 0.1391 | 687.56 | 676.32
100 kPa, x2 = 0.1907 | 688.32 | 676.49
100 kPa, x2 = 0.3001 | 690.77 | 678.11
100 kPa, x2 = 0.4326 | 694.55 | 680.77
100 kPa, x2 = 0.6863 | 710.6 | 696.41
100 kPa, x2 = 0.8711 | 732.51 | 719.28
1000 kPa, x2 = 0.1391 | – | 678.16
1000 kPa, x2 = 0.1907 | – | 678.39
1000 kPa, x2 = 0.8711 | – | 721.12
1010 kPa, x2 = 0.1391 | 689.22 | –
1010 kPa, x2 = 0.1907 | 690.02 | –
1010 kPa, x2 = 0.3001 | 692.37 | 679.67
1010 kPa, x2 = 0.4326 | 696.46 | –
1010 kPa, x2 = 0.6863 | 712.46 | 698.52
1010 kPa, x2 = 0.8711 | 734.14 | –
1020 kPa, x2 = 0.4326 | – | 682.95
2000 kPa, x2 = 0.6863 | 713.55 | –
2010 kPa, x2 = 0.1391 | – | 679.31
2010 kPa, x2 = 0.1907 | 691.1 | –
2010 kPa, x2 = 0.3001 | 693.48 | 680.84
2010 kPa, x2 = 0.6863 | – | 699.68
2010 kPa, x2 = 0.8711 | – | 722.21
2020 kPa, x2 = 0.1391 | 690.3 | –
2020 kPa, x2 = 0.1907 | – | 679.54
2020 kPa, x2 = 0.4326 | 697.54 | 684.1
2020 kPa, x2 = 0.8711 | 735.16 | –
3000 kPa, x2 = 0.1907 | – | 680.66
3000 kPa, x2 = 0.3001 | – | 681.96
3010 kPa, x2 = 0.1391 | 691.36 | –
3010 kPa, x2 = 0.1907 | 692.15 | –
3010 kPa, x2 = 0.3001 | 694.52 | –
3010 kPa, x2 = 0.6863 | – | 700.85
3010 kPa, x2 = 0.8711 | 736.2 | –
3020 kPa, x2 = 0.1391 | – | 680.43
3020 kPa, x2 = 0.4326 | 698.61 | 685.26
3020 kPa, x2 = 0.6863 | 714.64 | –
3020 kPa, x2 = 0.8711 | – | 723.32
4000 kPa, x2 = 0.1391 | 692.41 | –
4000 kPa, x2 = 0.4326 | – | 686.44
4000 kPa, x2 = 0.6863 | 715.75 | –
4000 kPa, x2 = 0.8711 | 737.27 | –
4010 kPa, x2 = 0.1391 | – | 681.55
4010 kPa, x2 = 0.1907 | – | 681.83
4010 kPa, x2 = 0.3001 | – | 683.13
4010 kPa, x2 = 0.6863 | – | 702.05
4020 kPa, x2 = 0.1907 | 693.23 | –
4020 kPa, x2 = 0.3001 | 695.6 | –
4020 kPa, x2 = 0.4326 | 699.72 | –
4020 kPa, x2 = 0.8711 | – | 724.45
5000 kPa, x2 = 0.4326 | 700.81 | –
5000 kPa, x2 = 0.8711 | – | 725.63
5010 kPa, x2 = 0.1391 | – | 682.67
5010 kPa, x2 = 0.1907 | – | 682.92
5010 kPa, x2 = 0.3001 | 696.69 | 684.29
5010 kPa, x2 = 0.4326 | – | 687.63
5010 kPa, x2 = 0.6863 | 716.84 | –
5020 kPa, x2 = 0.1391 | 693.45 | –
5020 kPa, x2 = 0.1907 | 694.27 | –
5020 kPa, x2 = 0.6863 | – | 703.25
5020 kPa, x2 = 0.8711 | 738.33 | –
6000 kPa, x2 = 0.6863 | – | 704.42
6010 kPa, x2 = 0.1391 | – | 683.79
6010 kPa, x2 = 0.1907 | 695.3 | 684.03
6010 kPa, x2 = 0.4326 | 701.9 | 688.8
6010 kPa, x2 = 0.6863 | 717.93 | –
6010 kPa, x2 = 0.8711 | 739.41 | –
6020 kPa, x2 = 0.1391 | 694.49 | –
6020 kPa, x2 = 0.3001 | 697.74 | 685.42
6020 kPa, x2 = 0.8711 | – | 726.78
7000 kPa, x2 = 0.4326 | 702.99 | –
7000 kPa, x2 = 0.8711 | 740.46 | –
7010 kPa, x2 = 0.1391 | 695.53 | –
7010 kPa, x2 = 0.1907 | 696.35 | –
7010 kPa, x2 = 0.3001 | 698.82 | 686.6
7010 kPa, x2 = 0.4326 | – | 690
7010 kPa, x2 = 0.6863 | 719.02 | –
7020 kPa, x2 = 0.1391 | – | 684.92
7020 kPa, x2 = 0.1907 | – | 685.14
7020 kPa, x2 = 0.6863 | – | 705.63
7020 kPa, x2 = 0.8711 | – | 727.93
8000 kPa, x2 = 0.1907 | 697.42 | –
8000 kPa, x2 = 0.3001 | – | 687.74
8000 kPa, x2 = 0.8711 | 741.52 | –
8010 kPa, x2 = 0.1391 | 696.59 | 686.06
8010 kPa, x2 = 0.1907 | – | 686.32
8010 kPa, x2 = 0.4326 | – | 691.17
8010 kPa, x2 = 0.6863 | 720.12 | 706.82
8010 kPa, x2 = 0.8711 | – | 729.07
8020 kPa, x2 = 0.3001 | 699.88 | –
8020 kPa, x2 = 0.4326 | 704.06 | –
9000 kPa, x2 = 0.1907 | 698.46 | –
9000 kPa, x2 = 0.6863 | – | 708.03
9010 kPa, x2 = 0.1391 | 697.61 | –
9010 kPa, x2 = 0.3001 | 700.95 | –
9010 kPa, x2 = 0.4326 | – | 692.36
9010 kPa, x2 = 0.8711 | 742.57 | 730.22
9020 kPa, x2 = 0.1391 | – | 687.14
9020 kPa, x2 = 0.1907 | – | 687.44
9020 kPa, x2 = 0.3001 | – | 688.92
9020 kPa, x2 = 0.4326 | 705.14 | –
9020 kPa, x2 = 0.6863 | 721.21 | –
10000 kPa, x2 = 0.4326 | 706.23 | 693.57
10000 kPa, x2 = 0.6863 | – | 709.2
10010 kPa, x2 = 0.1391 | 698.62 | 688.25
10010 kPa, x2 = 0.3001 | 702.02 | –
10010 kPa, x2 = 0.6863 | 722.27 | –
10010 kPa, x2 = 0.8711 | 743.61 | –
10020 kPa, x2 = 0.1907 | 699.47 | –
11010 kPa, x2 = 0.1391 | 699.66 | –
11010 kPa, x2 = 0.1907 | 700.5 | –
11010 kPa, x2 = 0.4326 | 707.27 | –
11010 kPa, x2 = 0.8711 | 744.65 | –
11020 kPa, x2 = 0.3001 | 703.07 | –
11020 kPa, x2 = 0.6863 | 723.34 | –
12000 kPa, x2 = 0.4326 | 708.34 | –
12000 kPa, x2 = 0.8711 | 745.65 | –
12010 kPa, x2 = 0.1907 | 701.55 | –
12010 kPa, x2 = 0.3001 | 704.1 | –
12020 kPa, x2 = 0.1391 | 700.67 | –
12020 kPa, x2 = 0.6863 | 724.37 | –
13000 kPa, x2 = 0.1391 | 701.67 | –
13000 kPa, x2 = 0.6863 | 725.42 | –
13000 kPa, x2 = 0.8711 | 746.64 | –
13010 kPa, x2 = 0.3001 | 705.15 | –
13010 kPa, x2 = 0.4326 | 709.37 | –
13020 kPa, x2 = 0.1907 | 702.55 | –
14000 kPa, x2 = 0.3001 | 706.16 | –
14000 kPa, x2 = 0.4326 | 710.39 | –
14000 kPa, x2 = 0.6863 | 726.44 | –
14000 kPa, x2 = 0.8711 | 747.65 | –
14010 kPa, x2 = 0.1391 | 702.65 | –
14020 kPa, x2 = 0.1907 | 703.54 | –
15000 kPa, x2 = 0.1391 | 703.58 | –
15000 kPa, x2 = 0.1907 | 704.5 | –
15000 kPa, x2 = 0.6863 | 727.44 | –
15010 kPa, x2 = 0.4326 | 711.38 | –
15010 kPa, x2 = 0.8711 | 748.62 | –
15020 kPa, x2 = 0.3001 | 707.12 | –
16000 kPa, x2 = 0.6863 | 728.43 | –
16000 kPa, x2 = 0.8711 | 749.58 | –
16010 kPa, x2 = 0.1391 | 704.52 | –
16010 kPa, x2 = 0.1907 | 705.46 | –
16010 kPa, x2 = 0.3001 | 708.12 | –
16020 kPa, x2 = 0.4326 | 712.37 | –
17000 kPa, x2 = 0.1907 | 706.43 | –
17000 kPa, x2 = 0.3001 | 709.07 | –
17000 kPa, x2 = 0.4326 | 713.3 | –
17010 kPa, x2 = 0.1391 | 705.45 | –
17010 kPa, x2 = 0.6863 | 729.39 | –
17010 kPa, x2 = 0.8711 | 750.52 | –
18000 kPa, x2 = 0.6863 | 730.34 | –
18010 kPa, x2 = 0.1907 | 707.33 | –
18010 kPa, x2 = 0.3001 | 709.98 | –
18010 kPa, x2 = 0.4326 | 714.25 | –
18010 kPa, x2 = 0.8711 | 751.45 | –
18020 kPa, x2 = 0.1391 | 706.37 | –
19010 kPa, x2 = 0.1391 | 707.22 | –
19010 kPa, x2 = 0.3001 | 710.9 | –
19010 kPa, x2 = 0.4326 | 715.15 | –
19010 kPa, x2 = 0.6863 | 731.24 | –
19010 kPa, x2 = 0.8711 | 752.35 | –
19020 kPa, x2 = 0.1907 | 708.2 | –
20000 kPa, x2 = 0.1391 | 708.05 | –
20000 kPa, x2 = 0.1907 | 709.04 | –
20000 kPa, x2 = 0.8711 | 753.23 | –
20010 kPa, x2 = 0.4326 | 716.08 | –
20010 kPa, x2 = 0.6863 | 732.18 | –
20020 kPa, x2 = 0.3001 | 711.75 | –
